Laboratory results published in ChEMBL document CHEMBL1833947, “Synthesis and biological investigation of potential atypical antipsychotics with a tropane core. Part 1” (Eur J Med Chem, 2011).
Activity calls are given as the source filed them. No cut-off for these calls is given here.

Assays:
[1] = target: T1, 5-hydroxytryptamine receptor 1A (Rattus norvegicus, UniProt P19327); assay: Displacement of [3H]8OH-DPAT from 5HT1A in rat brain cerebral cortex after 15 mins by scintillation counting; format: tissue-based
T1 sequence (P19327 whole entry): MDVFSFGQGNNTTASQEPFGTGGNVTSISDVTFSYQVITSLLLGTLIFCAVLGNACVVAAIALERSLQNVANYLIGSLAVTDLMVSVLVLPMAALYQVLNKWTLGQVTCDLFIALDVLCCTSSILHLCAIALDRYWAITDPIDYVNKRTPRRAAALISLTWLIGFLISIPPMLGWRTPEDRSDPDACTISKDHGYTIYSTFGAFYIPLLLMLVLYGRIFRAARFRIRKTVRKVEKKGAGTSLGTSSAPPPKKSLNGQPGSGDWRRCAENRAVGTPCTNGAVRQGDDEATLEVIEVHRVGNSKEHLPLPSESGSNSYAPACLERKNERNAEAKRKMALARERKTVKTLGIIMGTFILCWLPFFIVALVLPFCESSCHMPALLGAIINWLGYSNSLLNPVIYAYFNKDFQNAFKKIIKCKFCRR

[2] = target: 5-hydroxytryptamine receptor 2A (Rattus norvegicus, UniProt P14842); assay: Displacement of [3H]ketanserin from 5HT2A in rat brain cerebral cortex after 20 mins by scintillation counting; format: tissue-based
[3] = target: D(2) dopamine receptor (Rattus norvegicus, UniProt P61169); assay: Displacement of [3H]spiperone from dopamine D2 receptor in rat striatum tissue after 20 mins by scintillation counting; format: tissue-based
[4] = tested on: Mus musculus; assay: Antipsychotic activity in mouse assessed as reversal of apomorphine-induced mesh climbing response at 50 mg/kg, ip administered 20 mins prior to apomorphine challenge measured after 120 mins
[5] = tested on: Mus musculus; assay: Antipsychotic activity in mouse assessed as reversal of apomorphine-induced mesh climbing response at 50 mg/kg, ip administered 10 mins prior to apomorphine challenge measured after 30 mins; format: functional, organism-based; design: dose 50 mg/kg
[6] = tested on: Mus musculus; assay: Antipsychotic activity in mouse assessed as reversal of apomorphine-induced mesh climbing response at 10 mg/kg, ip administered 10 mins prior to apomorphine challenge measured after 20 mins; format: functional, organism-based; design: dose 10 mg/kg
[7] = tested on: Mus musculus; assay: Antipsychotic activity in mouse assessed as reversal of DOI-induced head twitches at 5 mg/kg, ip administered 30 mins before DOI challenge; format: functional; details: route intraperitoneal
[8] = tested on: Mus musculus; assay: Antipsychotic activity in mouse assessed as reversal of DOI-induced head twitches at 10 mg/kg, ip administered 30 mins before DOI challenge; format: functional; details: route intraperitoneal
[9] = tested on: Mus musculus; assay: Antipsychotic activity in mouse assessed as reversal of DOI-induced head twitches at 20 mg/kg, ip administered 30 mins before DOI challenge; format: functional; details: route intraperitoneal
[10] = tested on: Mus musculus; assay: Antipsychotic activity in mouse assessed as reversal of apomorphine-induced mesh climbing response at 10 mg/kg, ip administered 10 mins prior to apomorphine challenge measured after 40 mins; format: functional, organism-based; design: dose 10 mg/kg
[11] = tested on: Mus musculus; assay: Antipsychotic activity in mouse assessed as reversal of apomorphine-induced mesh climbing response at 2.5 mg/kg, ip administered 10 mins prior to apomorphine challenge measured after 60 mins; format: functional, organism-based; design: dose 2.5 mg/kg
[12] = tested on: Mus musculus; assay: Antipsychotic activity in mouse assessed as reversal of apomorphine-induced mesh climbing response at 2.5 mg/kg, ip administered 10 mins prior to apomorphine challenge measured after 10 mins; format: functional, organism-based; design: dose 2.5 mg/kg
[13] = tested on: Mus musculus; assay: Antipsychotic activity in mouse assessed as reversal of apomorphine-induced mesh climbing response at 2.5 mg/kg, ip administered 10 mins prior to apomorphine challenge measured after 20 mins; format: functional, organism-based; design: dose 2.5 mg/kg
[14] = tested on: Mus musculus; assay: Antipsychotic activity in mouse assessed as reversal of apomorphine-induced mesh climbing response at 2.5 mg/kg, ip administered 10 mins prior to apomorphine challenge measured after 50 mins; format: functional, organism-based; design: dose 2.5 mg/kg
[15] = tested on: Mus musculus; assay: Antipsychotic activity in mouse assessed as reversal of apomorphine-induced mesh climbing response at 2.5 mg/kg, ip administered 10 mins prior to apomorphine challenge measured after 30 mins; format: functional, organism-based; design: dose 2.5 mg/kg

5-hydroxytryptamine receptor 2A, sequence (P14842 whole entry): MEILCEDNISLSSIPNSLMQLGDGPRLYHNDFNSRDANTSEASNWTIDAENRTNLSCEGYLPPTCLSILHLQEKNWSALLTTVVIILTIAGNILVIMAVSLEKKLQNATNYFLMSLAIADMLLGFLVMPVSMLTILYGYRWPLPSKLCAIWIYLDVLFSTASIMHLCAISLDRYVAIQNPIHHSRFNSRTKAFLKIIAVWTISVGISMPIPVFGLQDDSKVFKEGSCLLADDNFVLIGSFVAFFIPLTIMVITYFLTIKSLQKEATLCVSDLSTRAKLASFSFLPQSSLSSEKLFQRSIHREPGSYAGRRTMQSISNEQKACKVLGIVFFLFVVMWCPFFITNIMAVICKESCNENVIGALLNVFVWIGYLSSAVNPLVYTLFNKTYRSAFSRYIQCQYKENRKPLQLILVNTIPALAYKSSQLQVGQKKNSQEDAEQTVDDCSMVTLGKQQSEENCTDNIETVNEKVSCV
D(2) dopamine receptor, sequence (P61169 whole entry): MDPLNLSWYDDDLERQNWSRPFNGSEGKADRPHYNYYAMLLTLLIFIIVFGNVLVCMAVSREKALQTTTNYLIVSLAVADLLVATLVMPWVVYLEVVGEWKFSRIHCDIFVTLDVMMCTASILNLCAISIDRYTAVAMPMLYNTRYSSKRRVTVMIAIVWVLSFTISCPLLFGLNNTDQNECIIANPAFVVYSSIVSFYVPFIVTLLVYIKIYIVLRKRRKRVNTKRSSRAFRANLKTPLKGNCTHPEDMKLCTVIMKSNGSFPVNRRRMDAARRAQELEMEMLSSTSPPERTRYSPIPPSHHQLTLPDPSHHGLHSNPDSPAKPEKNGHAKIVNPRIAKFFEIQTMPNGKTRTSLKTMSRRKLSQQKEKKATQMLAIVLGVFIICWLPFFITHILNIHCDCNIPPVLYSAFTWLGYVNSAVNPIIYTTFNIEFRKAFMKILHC

| Structure (SMILES) | Ki [1] | Ki [2] | Ki [3] | other results |
| --- | --- | --- | --- | --- |
| O=C(N[C@@H]1CC2CC[C@H](C1)N2CC1CCCO1)c1cccc2ccccc12 (single isomer, unassigned) | 3100 nM | 394 nM | 4000 nM |  |
| COc1ccc(C(=O)N[C@H]2CC3CC[C@H](C2)N3Cc2ccco2)cc1OC (single isomer, unassigned) | 57300 nM | 7900 nM | 68800 nM |  |
| COc1cccc(C(=O)N[C@@H]2CC3CC[C@H](C2)N3Cc2cccnc2)c1OC (single isomer, unassigned) | 3300 nM | 956 nM | 11.5 nM |  |
| O=C(N[C@@H]1CC2CC[C@H](C1)N2Cc1ccccc1)c1cccc2ccccc12 (single isomer, unassigned) | 532 nM | 394 nM | 2900 nM |  |
| COc1ccc(C(=O)N[C@H]2CC3CC[C@H](C2)N3Cc2ccco2)c(OC)c1 (single isomer, unassigned) | 19000 nM | 1300 nM | 652 nM |  |
| COc1ccccc1C(=O)N[C@H]1CC2CC[C@H](C1)N2Cc1ccco1 (single isomer, unassigned) | 6100 nM | 6000 nM | 1000 nM |  |
| O=C(N[C@H]1CC2CC[C@H](C1)N2CC1CCCO1)c1ccccc1 (single isomer, unassigned) | 10200 nM | 3100 nM | > 100000 nM |  |
| COc1cccc(C(=O)N[C@@H]2CC3CC[C@H](C2)N3Cc2ccco2)c1OC (single isomer, unassigned; 4b) [listing 1 of 2 here] |  |  |  | Activity [4]: Active; Activity [5]: Active; Activity [6]: inactive |
| COc1ccc(F)cc1C(=O)N[C@H]1C[C@H]2CC[C@@H](C1)N2Cc1ccco1 (stereo in doubt; 14b) | > 100000 nM | 7000 nM | 44000 nM |  |
| COc1ccc(F)cc1C(=O)N[C@H]1CC2CC[C@H](C1)N2Cc1ccco1 (single isomer, unassigned) | 17200 nM | 1400 nM | 507 nM |  |
| COc1cc(C(=O)N[C@H]2CC3CC[C@H](C2)N3Cc2ccco2)cc(OC)c1OC (single isomer, unassigned) | 2900 nM | 1100 nM | 52200 nM |  |
| COc1cc(OC)cc(C(=O)N[C@H]2CC3CC[C@H](C2)N3Cc2ccco2)c1 (single isomer, unassigned) | 4400 nM | 929 nM | 13200 nM |  |
| O=C(N[C@H]1CC2CC[C@H](C1)N2Cc1ccco1)c1ccc(Cl)cc1[N+](=O)[O-] (single isomer, unassigned) | 16000 nM | 32000 nM | 19000 nM |  |
| COc1ccc(Cl)cc1C(=O)N[C@@H]1CC2CC[C@H](C1)N2CC1CCCO1 (single isomer, unassigned) | 4600 nM | 120 nM | 2400 nM |  |
| COc1cccc(C(=O)N[C@@H]2CC3CC[C@H](C2)N3Cc2ccco2)c1OC (single isomer, unassigned; 4b) [listing 2 of 2 here] | 3000 nM | 745 nM | 26.3 nM | Activity [7]: 33%; Activity [8]: 28%; Activity [9]: 47% |
| O=C(N[C@H]1CC2CC[C@H](C1)N2Cc1ccco1)c1cccc2ccccc12 (single isomer, unassigned) | 7100 nM | 2300 nM | 66700 nM |  |
| COc1cccc(C(=O)N[C@@H]2CC3CC[C@H](C2)N3Cc2ccncc2)c1OC (single isomer, unassigned) | 2500 nM | 700 nM | 28.3 nM |  |
| COc1cc(Cl)ccc1C(=O)N[C@H]1CC2CC[C@H](C1)N2Cc1ccco1 (single isomer, unassigned) | 2100 nM | 682 nM | 174 nM | Activity [7]: 40%; Activity [10]: inactive; Activity [4]: Active; Activity [8]: 40%; Activity [9]: 45% |
| O=C(N[C@@H]1CC2CC[C@H](C1)N2CC1CCCO1)c1ccc2ccccc2c1 (single isomer, unassigned) | 3300 nM | 12.3 nM | 1200 nM | Activity [7]: 26%; Activity [4]: Active; Activity [8]: 63%; Activity [9]: 73% |
| COc1cccc(C(=O)N[C@@H]2CC3CC[C@H](C2)N3Cc2ccccn2)c1OC (single isomer, unassigned) | 1400 nM | 1000 nM | 9.3 nM |  |
| CN1CCc2cccc3c2[C@H]1Cc1ccc(O)c(O)c1-3 |  |  |  | Activity [11]: inactive; Activity [12]: inactive; Activity [13]: inactive; Activity [14]: inactive; Activity [15]: inactive |
| COc1cccc(C(=O)N[C@@H]2CC3CC[C@H](C2)N3Cc2ccco2)c1OC (single isomer, unassigned; 14a) | > 100000 nM | 2500 nM | > 100000 nM |  |
| COc1cccc(C(=O)N[C@H]2CC3CC[C@H](C2)N3CC2CCCO2)c1 (single isomer, unassigned) | 10300 nM | 1100 nM | > 100000 nM |  |
| COc1ccc(OC)c(C(=O)N[C@H]2CC3CC[C@H](C2)N3Cc2ccco2)c1 (single isomer, unassigned) | 9600 nM | 1100 nM | 1100 nM |  |
| COc1ccc(F)cc1C(=O)N[C@@H]1CC2CC[C@H](C1)N2CC1CCCO1 (single isomer, unassigned) | 10100 nM | 1100 nM | 12400 nM |  |
